The text below walks through data of patent US9168259B2 (GRÜNENTHAL GMBH, priority 2010, dated 2015).

The target of this test is T1, KCNQ2/3 channels (Homo sapiens, UniProt O43525+O43526).
T1 construct: expressed in transfected cells
The experiment in a line: Fluorescence assay using a voltage sensitive dye (fluorimetry). The test is classed as cell-based. As to conditions: CHO-K1 cells expressing KCNQ2/3; for Emax: CHO-K1, plateau effect relative to saturated retigabine (50 μM) = 100%, negative values = antagonistic, read-out: Fluorimetry % efficacy (retigabine = 100%); for EC50: IC50 where % efficacy is negative, read-out: Fluorimetry EC50/IC50.

T1 sequence (O43526 whole entry): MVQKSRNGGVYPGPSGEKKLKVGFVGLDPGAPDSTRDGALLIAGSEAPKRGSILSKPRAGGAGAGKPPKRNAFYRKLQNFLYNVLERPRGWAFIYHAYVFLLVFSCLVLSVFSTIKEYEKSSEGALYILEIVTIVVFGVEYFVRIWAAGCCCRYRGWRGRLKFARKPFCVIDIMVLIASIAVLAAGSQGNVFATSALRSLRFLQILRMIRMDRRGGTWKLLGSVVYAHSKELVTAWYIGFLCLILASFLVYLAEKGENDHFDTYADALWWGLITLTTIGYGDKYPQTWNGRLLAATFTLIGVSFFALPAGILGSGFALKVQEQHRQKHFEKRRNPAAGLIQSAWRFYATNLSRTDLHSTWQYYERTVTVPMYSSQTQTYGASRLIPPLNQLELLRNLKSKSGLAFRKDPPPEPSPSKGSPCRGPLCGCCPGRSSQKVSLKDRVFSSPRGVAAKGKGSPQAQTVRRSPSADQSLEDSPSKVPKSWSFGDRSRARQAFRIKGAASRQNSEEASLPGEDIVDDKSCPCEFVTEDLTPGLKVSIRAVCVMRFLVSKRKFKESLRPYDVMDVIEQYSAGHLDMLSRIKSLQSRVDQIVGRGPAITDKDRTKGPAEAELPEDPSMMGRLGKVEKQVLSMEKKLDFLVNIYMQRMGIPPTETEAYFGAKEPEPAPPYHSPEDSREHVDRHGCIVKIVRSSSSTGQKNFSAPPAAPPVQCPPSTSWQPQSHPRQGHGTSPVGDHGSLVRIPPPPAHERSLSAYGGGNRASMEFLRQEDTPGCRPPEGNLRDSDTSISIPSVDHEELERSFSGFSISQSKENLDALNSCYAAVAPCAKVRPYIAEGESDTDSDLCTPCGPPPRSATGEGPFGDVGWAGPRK
T1 sequence (O43525 whole entry): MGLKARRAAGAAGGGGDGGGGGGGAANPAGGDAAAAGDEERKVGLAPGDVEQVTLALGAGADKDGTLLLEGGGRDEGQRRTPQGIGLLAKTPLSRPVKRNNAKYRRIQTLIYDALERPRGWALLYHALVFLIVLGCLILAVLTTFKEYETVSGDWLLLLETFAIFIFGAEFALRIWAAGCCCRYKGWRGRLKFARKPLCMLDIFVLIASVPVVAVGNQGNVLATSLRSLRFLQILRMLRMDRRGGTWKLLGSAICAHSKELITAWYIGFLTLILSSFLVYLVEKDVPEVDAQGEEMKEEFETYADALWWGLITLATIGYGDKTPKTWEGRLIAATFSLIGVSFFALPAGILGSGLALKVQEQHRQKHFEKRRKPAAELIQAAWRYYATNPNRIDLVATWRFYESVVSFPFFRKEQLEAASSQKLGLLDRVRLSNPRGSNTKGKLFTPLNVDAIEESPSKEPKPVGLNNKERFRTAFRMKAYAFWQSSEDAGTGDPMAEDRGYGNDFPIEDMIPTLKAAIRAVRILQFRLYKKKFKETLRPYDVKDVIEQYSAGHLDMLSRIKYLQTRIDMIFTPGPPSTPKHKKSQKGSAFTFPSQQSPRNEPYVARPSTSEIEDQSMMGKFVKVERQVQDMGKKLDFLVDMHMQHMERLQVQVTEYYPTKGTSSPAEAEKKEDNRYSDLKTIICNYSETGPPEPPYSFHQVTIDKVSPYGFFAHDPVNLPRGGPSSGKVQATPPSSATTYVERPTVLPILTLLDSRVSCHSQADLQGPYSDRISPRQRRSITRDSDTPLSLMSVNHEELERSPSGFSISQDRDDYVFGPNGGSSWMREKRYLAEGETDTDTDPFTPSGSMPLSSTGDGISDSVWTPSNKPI

For the compound `Cc1cc(N2CCOCC2)nc(C2CC2)c1C(=O)NCCCC(C)(C)C` [Example 328, 2-Cyclopropyl-N-(4,4-dimethyl-pentyl)-4-methyl-6-morpholin-4-yl-pyridine-3-carboxylic acid amide], the Emax turned out to be 230% and the EC50 turned out to be 0.044 µM. On the same counts, the results for `Cc1cc(N2CCOCC2)nc(C2CC2)c1C(=O)NCCCC(F)(F)F` [Example 329, 2-Cyclopropyl-4-methyl-6-morpholin-4-yl-N-(4,4,4-trifluoro-butyl)-pyridine-3-carboxylic acid amide] are 170% and 0.763 µM. On the same counts, the results for `Cc1cc(N2CCOCC2)nc(C2CC2)c1C(=O)NCc1cccc(F)c1` [Example 330, 2-Cyclopropyl-N-[(3-fluorophenyl)-methyl]-4-methyl-6-morpholin-4-yl-pyridine-3-carboxylic acid amide] are 156% and 0.168 µM.

Turning to `Cc1cc(N2CCOCC2)nc(C2CC2)c1C(=O)NCc1ccc(F)cc1` [Example 331, 2-Cyclopropyl-N-[(4-fluorophenyl)-methyl]-4-methyl-6-morpholin-4-yl-pyridine-3-carboxylic acid amide], the Emax stood at 144% and the EC50 is 0.148 µM. With `Cc1cc(N2CCOCC2)nc(C2CC2)c1C(=O)NCc1ccc(F)c(F)c1` [Example 332, 2-Cyclopropyl-N-[(3,4-difluoro-phenyl)-methyl]-4-methyl-6-morpholin-4-yl-pyridine-3-carboxylic acid amide], the Emax was 166% and the EC50 was determined as 0.109 µM. `Cc1cc(N2CCOCC2)nc(C2CC2)c1C(=O)NCc1cc(F)cc(F)c1` [Example 333, 2-Cyclopropyl-N-[(3,5-difluoro-phenyl)-methyl]-4-methyl-6-morpholin-4-yl-pyridine-3-carboxylic acid amide]: the Emax was 169% and the EC50 turned out to be 0.098 µM.

For the compound `Cc1cc(N2CCOCC2)nc(C2CC2)c1C(=O)NCc1ccc(C(F)(F)F)cc1` [Example 334, 2-Cyclopropyl-4-methyl-6-morpholin-4-yl-N-[[4-(trifluoromethyl)-phenyl]-methyl]-pyridine-3-carboxylic acid amide], the Emax was found to be 124% and the EC50 came out at 0.096 µM. On the same counts, the results for `Cc1cc(N2CCOCC2)nc(C2CC2)c1C(=O)NCc1ccc(Cl)cc1` [Example 335, N-[(4-Chlorophenyl)-methyl]-2-cyclopropyl-4-methyl-6-morpholin-4-yl-pyridine-3-carboxylic acid amide] are 162% and 0.085 µM. On the same counts, the results for `CCSc1nc(N2CCOCC2)cc(OC)c1C(=O)NCc1cccc(F)c1` [Example 336, 2-Ethylsulfanyl-N-[(3-fluorophenyl)-methyl]-4-methoxy-6-morpholin-4-yl-pyridine-3-carboxylic acid amide] are 183% and 0.43 µM. On the same counts, the results for `COCCSc1nc(N2CCOCC2)cc(C)c1C(=O)NCCCC(C)(C)C` [Example 337, N-(4,4-Dimethyl-pentyl)-2-(2-methoxy-ethylsulfanyl)-4-methyl-6-morpholin-4-yl-pyridine-3-carboxylic acid amide] are 237% and 0.117 µM.

As for `CCSc1nc(N(CCCOC)Cc2ccc(F)cc2)cc(C)c1C(=O)NCc1cccc(F)c1` [Example 338, 2-Ethylsulfanyl-N-[(3-fluorophenyl)-methyl]-6-[(4-fluorophenyl)-methyl-(3-methoxy-propyl)-amino]-4-methyl-pyridine-3-carboxylic acid amide], the Emax worked out at 73% and the EC50 was found to be 0.32 µM. For the compound `CCSc1nc(N2CCOCC2)cc(C)c1C(=O)NCCC(C)C(C)(C)C` (stereo not drawn) [Example 339, 2-Ethylsulfanyl-4-methyl-6-morpholin-4-yl-N-(3,4,4-trimethyl-pentyl)-pyridine-3-carboxylic acid amide], the Emax amounted to 202% and the EC50 came out at 0.037 µM. As to `CCSc1nc(N2CCOCC2CCOC)cc(C)c1C(=O)NCc1cccc(F)c1` (stereo not drawn) [Example 340, 2-Ethylsulfanyl-N-[(3-fluorophenyl)-methyl]-6-[3-(2-methoxy-ethyl)-morpholin-4-yl]-4-methyl-pyridine-3-carboxylic acid amide], the Emax stood at 152% and the EC50 was 0.274 µM. For `CC(=O)N(C)c1nc(N2CCOCC2)cc(C)c1C(=O)NCc1cccc(F)c1` [Example 341, 2-(Acetyl-methyl-amino)-N-[(3-fluorophenyl)-methyl]-4-methyl-6-morpholin-4-yl-pyridine-3-carboxylic acid amide], the Emax amounted to 22%.

On to `CCSc1nc(N(CCOC)Cc2ccc(F)cc2)cc(C)c1C(=O)NCc1cccc(F)c1` [Example 342, 2-Ethylsulfanyl-N-[(3-fluorophenyl)-methyl]-6-[(4-fluorophenyl)-methyl-(2-methoxy-ethyl)-amino]-4-methyl-pyridine-3-carboxylic acid amide], for which the Emax worked out at 124% and the EC50 was 0.291 µM. On the same counts, the results for `CCSc1nc(N2CCOCC2)cc(C)c1C(=O)NCCCC1(C)COC1` [Example 343, 2-Ethylsulfanyl-4-methyl-N-[3-(3-methyl-oxetan-3-yl)-propyl]-6-morpholin-4-yl-pyridine-3-carboxylic acid amide] are 163% and 6.84 µM. On the same counts, the results for `CCSc1nc(N2CCOCC2)cc(C)c1C(=O)NCC#CC(C)(C)C` [Example 344, N-(4,4-Dimethyl-pent-2-ynyl)-2-ethylsulfanyl-4-methyl-6-morpholin-4-yl-pyridine-3-carboxylic acid amide] are 253% and 0.041 µM.

Consider `CCSc1nc(N2C3CCC2COC3)cc(C)c1C(=O)NCc1cccc(F)c1` [Example 345, 2-Ethylsulfanyl-N-[(3-fluorophenyl)-methyl]-4-methyl-6-(3-oxa-8-azabicyclo[3.2.1]octan-8-yl)-pyridine-3-carboxylic acid amide], for which the Emax came to 200% and the EC50 was found to be 0.122 µM. In the case of `CCSc1nc(N2CCOCC2)cc(COC)c1C(=O)NCc1cccc(F)c1` [Example 346, 2-Ethylsulfanyl-N-[(3-fluorophenyl)-methyl]-4-(methoxymethyl)-6-morpholin-4-yl-pyridine-3-carboxylic acid amide], the Emax was 157% and the EC50 worked out at 0.729 µM. `CCC(C)c1nc(N2CCOCC2)cc(C)c1C(=O)NCc1ccc(Cl)cc1` (stereo not drawn) [Example 347, N-[(4-Chlorophenyl)-methyl]-4-methyl-2-(1-methyl-propyl)-6-morpholin-4-yl-pyridine-3-carboxylic acid amide]: the Emax came out at 156% and the EC50 was 0.041 µM.

As to `CCSc1nc(N2CCOCC2)cc(C)c1C(=O)NCCCC(C)(C)CC` [Example 348, N-(4,4-Dimethyl-hexyl)-2-ethylsulfanyl-4-methyl-6-morpholin-4-yl-pyridine-3-carboxylic acid amide], the Emax came to 228% and the EC50 amounted to 0.022 µM. Consider `COCCOc1nc(N2CCOCC2)cc(C)c1C(=O)NCCCC(C)(C)C` [Example 349, N-(4,4-Dimethyl-pentyl)-2-(2-methoxy-ethoxy)-4-methyl-6-morpholin-4-yl-pyridine-3-carboxylic acid amide], for which the Emax is 216% and the EC50 was 0.284 µM.

In the case of `CCSc1nc(N2CCOCC2)cc(C)c1C(=O)NCCCC1(C)CC1` [Example 350, 2-Ethylsulfanyl-4-methyl-N-[3-(1-methyl-cyclopropyl)-propyl]-6-morpholin-4-yl-pyridine-3-carboxylic acid amide], the Emax was 226% and the EC50 was 0.079 µM. On the same counts, the results for `COCc1cc(CNC(=O)c2c(C)cc(N3CCOCC3)nc2C2CC2)ccc1F` [Example 351, 2-Cyclopropyl-N-[[4-fluoro-3-(methoxymethyl)-phenyl]methyl]-4-methyl-6-morpholin-4-yl-pyridine-3-carboxylic acid amide] are 118% and 0.489 µM. With `CCSc1nc(N2CCOC[C@H]2C)cc(C)c1C(=O)NCc1ccc(F)c(COC)c1` [Example 352, 2-Ethylsulfanyl-N-[[4-fluoro-3-(methoxymethyl)-phenyl]-methyl]-4-methyl-6-[(3R)-3-methyl-morpholin-4-yl]-pyridine-3-carboxylic acid amide], the Emax is 166% and the EC50 came out at 0.287 µM. As to `CCSc1nc(N2CCOCC2)cc(C)c1C(=O)NCc1ccc(F)c(CO)c1` [Example 353, 2-Ethylsulfanyl-N-[[4-fluoro-3-(hydroxymethyl)-phenyl]-methyl]-4-methyl-6-morpholin-4-yl-pyridine-3-carboxylic acid amide], the Emax was 46%.

Turning to `COCCCc1nc(N2CCOCC2)cc(C)c1C(=O)NCCCC(C)(C)C` [Example 354, N-(4,4-Dimethyl-pentyl)-2-(3-methoxy-propyl)-4-methyl-6-morpholin-4-yl-pyridine-3-carboxylic acid amide], the Emax is 204% and the EC50 stood at 1.54 µM.

Regarding `COCc1ccc(CNC(=O)c2c(C)cc(N3CCOCC3)nc2C2CC2)cc1F` [Example 355, 2-Cyclopropyl-N-[[3-fluoro-4-(methoxymethyl)-phenyl]methyl]-4-methyl-6-morpholin-4-yl-pyridine-3-carboxylic acid amide], the Emax stood at 167% and the EC50 stood at 0.721 µM. On the same counts, the results for `COCc1nc(N2CCOCC2)cc(C)c1C(=O)NCc1cccc(F)c1` [Example 356, N-[(3-Fluorophenyl)-methyl]-2-(methoxymethyl)-4-methyl-6-morpholin-4-yl-pyridine-3-carboxylic acid amide] are 140% and 6.32 µM. On to `CC(C)c1cc(N2CCOCC2)nc(C(C)C)c1C(=O)NCc1ccc(Cl)cc1` [Example 357, N-[(4-Chlorophenyl)-methyl]-2,4-diisopropyl-6-morpholin-4-yl-pyridine-3-carboxylic acid amide], for which the Emax came to 17%.
